In patent publication US8791132B2, “Compounds and methods for treatment of hypertension” (Medivation Technologies, Inc., priority 2011, dated 2014):
Where “and” joins values, the source holds several entries; their conditions need not be identical. Equal values may be shown once.

What was measured:
[1] = target: T1, human recombinant adrenergic α2B receptor (Homo sapiens, UniProt P18089); assay: Radioligand binding, adrenergic α2B ([3H]Rauwolscine); details: for Percentage inhibition of ligand binding, Adrenergic α2B (0.03 μM): compound at 0.03 μM; for Percentage inhibition of ligand binding, Adrenergic α2B (0.03 μM) / inhibition at 0.03 µM / inhibition at 0.1 µM: [3H]Rauwolscine, repeat datapoints each shown; for Ki: read-out: Ki α2B; for inhibition at 0.03 µM: read-out: Percentage inhibition of ligand binding, Adrenergic α2B (0.03 μM), compound at 0.03 μM; for inhibition at 0.1 µM: read-out: Percentage inhibition of ligand binding, Adrenergic α2B (0.1 μM), compound at 0.1 μM
T1 construct: expressed in transfected cells; host or cells: CHO-K1
T1 sequence (P18089 1-450): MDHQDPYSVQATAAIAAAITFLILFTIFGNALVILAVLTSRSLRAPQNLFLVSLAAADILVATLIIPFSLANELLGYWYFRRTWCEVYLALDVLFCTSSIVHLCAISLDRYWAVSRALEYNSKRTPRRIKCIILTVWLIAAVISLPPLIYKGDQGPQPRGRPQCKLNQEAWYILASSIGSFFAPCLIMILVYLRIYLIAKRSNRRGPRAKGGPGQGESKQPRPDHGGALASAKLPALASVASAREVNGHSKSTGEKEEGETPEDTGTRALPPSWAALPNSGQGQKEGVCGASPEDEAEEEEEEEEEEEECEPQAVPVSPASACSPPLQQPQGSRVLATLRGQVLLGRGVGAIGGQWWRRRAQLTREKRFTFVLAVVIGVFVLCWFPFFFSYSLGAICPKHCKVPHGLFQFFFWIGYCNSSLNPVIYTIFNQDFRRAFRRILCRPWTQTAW
In short: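 Membranes from CHO-K1 cells expressing human recombinant α2B, in 50 mM Tris-HCl pH 7.4, 12.5 mM MgCl2, 1 mM EDTA, 0.2% BSA, incubated with compound and 2.5 nM [3H]Rauwolscine, 60 min, 25 °C.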

[2] = target: T2, human recombinant adrenergic α2A receptor (Homo sapiens, UniProt P08913); assay: Radioligand binding, adrenergic α2A ([3H]MK-912); details: for Percentage inhibition of ligand binding, Adrenergic α2A (0.1 μM): compound at 0.1 μM; for inhibition at 0.03 µM: read-out: Percentage inhibition of ligand binding, Adrenergic α2A (0.03 μM), compound at 0.03 μM; for inhibition at 0.1 µM: read-out: Percentage inhibition of ligand binding, Adrenergic α2A (0.1 μM), compound at 0.1 μM
T2 construct: expressed in transfected cells; host or cells: insect Sf9 cells
T2 sequence (P08913 1-465): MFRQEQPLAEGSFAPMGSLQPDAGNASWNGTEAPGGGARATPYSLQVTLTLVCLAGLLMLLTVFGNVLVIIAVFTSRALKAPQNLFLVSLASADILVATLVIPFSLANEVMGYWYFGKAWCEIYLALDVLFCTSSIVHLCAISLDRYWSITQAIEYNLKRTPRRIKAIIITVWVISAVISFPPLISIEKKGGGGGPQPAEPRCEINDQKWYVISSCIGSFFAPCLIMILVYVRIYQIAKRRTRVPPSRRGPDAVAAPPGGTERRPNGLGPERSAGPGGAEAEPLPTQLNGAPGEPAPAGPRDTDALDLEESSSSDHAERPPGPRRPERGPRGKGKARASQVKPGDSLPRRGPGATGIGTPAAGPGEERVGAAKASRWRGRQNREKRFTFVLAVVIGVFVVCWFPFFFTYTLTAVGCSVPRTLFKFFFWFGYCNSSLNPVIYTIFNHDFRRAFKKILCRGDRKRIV
In short: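 Receptor expressed in Sf9 cells, in 50 mM Tris-HCl pH 7.4, 12.5 mM MgCl2, 2 mM EDTA; compounds incubated with 1 nM [3H]MK-912 for 60 min at 25 °C.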

[3] = target: T3, rat adrenergic α1B receptor (Rattus norvegicus, UniProt P15823); assay: Radioligand binding, adrenergic α1B ([3H]Prazosin); details: [3H]Prazosin, repeat datapoints each shown; for Percentage inhibition of ligand binding, Adrenergic α1B (0.1 μM): compound at 0.1 μM; for inhibition at 0.03 µM: read-out: Percentage inhibition of ligand binding, Adrenergic α1B (0.03 μM), compound at 0.03 μM; for inhibition at 0.1 µM: read-out: Percentage inhibition of ligand binding, Adrenergic α1B (0.1 μM), compound at 0.1 μM; for Percentage inhibition of ligand binding, Adrenergic α1B (0.03 μM): compound at 0.03 μM
T3 construct: rat adrenergic α1B receptor obtained from Wistar Rat liver; from tissue; host or cells: Wistar rat liver
T3 sequence (P15823 1-515): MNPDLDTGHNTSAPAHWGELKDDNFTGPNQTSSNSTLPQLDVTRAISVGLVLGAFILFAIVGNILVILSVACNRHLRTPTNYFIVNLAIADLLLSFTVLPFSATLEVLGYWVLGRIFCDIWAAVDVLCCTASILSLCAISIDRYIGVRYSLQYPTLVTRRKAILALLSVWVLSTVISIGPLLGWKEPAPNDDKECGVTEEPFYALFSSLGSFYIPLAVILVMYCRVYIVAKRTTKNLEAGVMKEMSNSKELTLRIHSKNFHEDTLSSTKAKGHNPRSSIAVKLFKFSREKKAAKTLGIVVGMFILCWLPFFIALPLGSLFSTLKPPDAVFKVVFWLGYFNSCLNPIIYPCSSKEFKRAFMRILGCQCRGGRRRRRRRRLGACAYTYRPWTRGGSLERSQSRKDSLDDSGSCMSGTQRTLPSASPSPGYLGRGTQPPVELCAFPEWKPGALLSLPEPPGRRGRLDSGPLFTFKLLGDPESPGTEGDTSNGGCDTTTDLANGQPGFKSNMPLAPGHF
In short: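 Rat α1B receptor from Wistar rat liver was incubated with 0.25 nM [3H]prazosin for 60 min at 25 °C in 50 mM Tris-HCl, pH 7.4, 0.5 mM EDTA. Non-specific binding was defined with 10 μM phentolamine. Bound radioligand was measured by filtration and counting, reported as percent inhibition of specific binding.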

[4] = [3H]MK-912, repeat datapoints each shown

Row | SMILES | Percentage inhibition of ligand binding, Adrenergic α2B (0.03 μM) [1] [%] | Ki [1] [nM] | inhibition at 0.03 µM [1] [%] | inhibition at 0.1 µM [1] [%] | Ki [2] [nM] | Percentage inhibition of ligand binding, Adrenergic α2A (0.1 μM) [2, 4] [%] | inhibition at 0.03 µM [2, 4] [%] | inhibition at 0.1 µM [2, 4] [%] | Percentage inhibition of ligand binding, Adrenergic α1B (0.1 μM) [3] | inhibition at 0.03 µM [3] [%] | inhibition at 0.1 µM [3] [%] | Percentage inhibition of ligand binding, Adrenergic α1B (0.03 μM) [3] [%] | Percentage inhibition of ligand binding, Adrenergic α2A (0.03 μM) ([2]; compound at 0.03 μM, [3H]MK-912, repeat datapoints each shown, 0.03 µM) [%]
1 | Cc1ccc2c(c1)c1c(n2CC(C)(O)c2cccnc2)CNCC1 (single isomer, unassigned) [128a] | 100 | 0.97 | 97 | 104 | 98.6 | 34 | 9 | 31 | 45% | 14 | 37 |  | 
2 | Cc1ccc2c(c1)c1c(n2CC(O)c2ccncc2)CCN2CCCC12 (single isomer, unassigned) [129c] |  | 0.77 | 100 |  | 88.6 |  |  |  | 96% | 86 | 94 |  | 
3 | Cc1ccc2c(c1)c1c(n2CC(OC(=O)C(C)(C)C)c2ccncc2)CCN(C)C1 (single isomer, unassigned) [130a] | 104 | 1.66 | 100 | 107 | 6.91 |  |  |  | 66% and 68% |  |  | 32 | 
4 | Cc1ccc2c(c1)c1c(n2CC(OC(=O)C(C)(C)C)c2ccncc2)CCN(C)C1 (single isomer, unassigned) [130b] |  | 2.52 |  |  | 72.6 | 31 |  |  | 8% and 11% |  |  | 2 | 13
5 | Cc1ccc2c(c1)c1c(n2CC(O)c2cnn(C)c2)CCN(C)C1 (single isomer, unassigned) [131b, 2-(1,2,3,4-tetrahydro-2,8-dimethylpyrido[4,3-b]indol-5-yl)-1-(1-methyl-1H-pyrazol-4-yl)ethanol] | 63 | 7.95 | 53 | 90 |  |  |  | 11 |  |  | 36 |  | 
6 | Cc1ccc2c(c1)c1c(n2CC(O)c2ccncc2C)CCN(C)C1 (single isomer, unassigned) [133b] | 88 | 2.42 | 87 | 94 | 59.5 | 39 | 27 | 34 | 42% | 16 | 40 |  | 
7 | Cc1cnc2c(c1)c1c(n2CCc2cccnc2)CCN2CCCC12 (single isomer, unassigned) [134b, 9-methyl-6-(2-pyridin-3-yl-ethyl)-2,3,4,5,6,10c-hexahydro-1H-3a,6,7-triaza-cyclopenta[c]fluorene] | 103 | 0.43 | 102 |  | 102 | 29 |  | 23 | 95% | 78 | 93 |  | 
8 | Cc1ccc2c(c1)c1c(n2CC(O)c2ccncc2Cl)CCN(C)C1 (single isomer, unassigned) [135a] | 42 |  |  |  |  | 4 |  |  | 60% |  |  |  | 
9 | Cc1ccc2c(c1)c1c(n2CC(O)c2ccncc2Cl)CCN(C)C1 (single isomer, unassigned) [135b] | 68 |  |  |  |  | 22 |  |  | 30% |  |  |  | 
10 | Cc1cnc2c(c1)c1c(n2CC(O)c2ccc(F)cc2)CCN(C)C1 (single isomer, unassigned) [136a] | 34 |  |  |  |  |  |  | 16 | 54% |  |  |  | 
11 | Cc1ccc(CCn2c3c(c4cc(Cl)cnc42)C2CCCN2CC3)cn1 (single isomer, unassigned) [137b] | 30 |  |  |  |  | 6 |  |  | 23% |  |  |  | 
12 | Cc1ccc2c(c1)c1c(n2CC(O)c2ccc(C(N)=O)cc2)CCN(C)C1 (single isomer, unassigned) [139a, 4-[2-(2,8-dimethyl-1,2,3,4-tetrahydro-pyrido[4,3-b]indol-5-yl)-1-hydroxy-ethyl]-benzamide] | 101 | 2.36 | 88 |  |  |  |  | 16 |  |  | 17 |  | 
13 | Cc1ccc2c(c1)c1c(n2CC(O)c2ccc(C(N)=O)cc2)CCN(C)C1 (single isomer, unassigned) [139b, 4-[2-(2,8-dimethyl-1,2,3,4-tetrahydro-pyrido[4,3-b]indol-5-yl)-1-hydroxy-ethyl]-benzamide] | 59 |  |  |  |  | 6 |  |  | 11% |  |  |  | 
14 | Cc1ccc2c(c1)c1c(n2CC(O)c2ccc(C#N)nc2)CCN(C)C1 (single isomer, unassigned) [140a, 5-[2-(2,8-dimethyl-1,2,3,4-tetrahydro-pyrido[4,3-b]indol-5-yl)-1-hydroxy-ethyl]-pyridine-2-carbonitrile] | 76 |  |  |  |  | 11 |  |  | 59% |  |  |  | 
15 | Cc1ccc2c(c1)c1c(n2CC(O)c2ccc(C#N)nc2)CCN(C)C1 (single isomer, unassigned) [140b, 5-[2-(2,8-dimethyl-1,2,3,4-tetrahydro-pyrido[4,3-b]indol-5-yl)-1-hydroxy-ethyl]-pyridine-2-carbonitrile] | 52 |  |  |  |  | 3 |  |  | 18% |  |  |  | 
